The test system of test [1] is Paenibacillus larvae subsp. pulvifaciens. In words: MIC by broth microdilution, bee pathogens. The conditions noted are these: range 1000 ppm to 0.25 ppm. It is filed as cell-based. The text has this: (§1) We tested allicia (Allisure™ Liquid) activity against several species of entomopathogenic bacteria (Paenibacillus larvae subsp. larvae, Paenibacillus larvae subsp. pulvifaciens) and fungi (Ascosphaera apis and Ascosphaera aggregata) using broth microdilution method to determine minimum inhibitory concentration (MIC) and the agar diffusion test (Kirby-Bauer) to determine zone of inhibition. Bacterial spores were isolated from the diseased honey bee larval samples. A small aliquot of heat-treated bacterial spores was suspended in 100 μl of phosphate buffered saline-pH 7.2 (PBS) and plated on semi-selective J. Agar medium, containing Nalidixic and Pipemidic acid (Alippi, A M (1995) Detection of Bacillus larvae spores in Argentinian honeys by using a semi-selective medium. Microbiologia 1995 11(3): 343-50; and Govan, V A; Allsopp, M H; Davison, S A (1999) PCR Detection Method for Rapid Identification of Paenibacillus larvae. Applied and Environmental Microbiology 65(5): 2243-2245.
(§2) The plates were incubated at 33° C. in air containing 6% CO2 and 95% RH. The initial species identification was based on morphological, biological and cultural characteristics. The bacterial culture was tested for a catalase reaction (Leboffe, M. J and Pierce, B e (1999) A photographic atlas for the microbiology laboratory. Morton Publishing Company. 254 pp). The bacterial colonies were characterized by shape, margins and color. Gram-positive stained smears (Gram-stain Reagents Kit, EMD Chemicals Inc., NJ) were examined for morphological identification of vegetative cells and spores.
(§3) DNA based PCR identification was performed to corroborate identification of the bacterial species. Bacterial cells from culture plates were added directly to 30 μl of PCR reaction. The PCR primers used in the reaction were based on the 16S RNA sequence to selectively amplify a fragment of 973 by unique to P. larvae (Govan et al., 1999). The PCR products were visualized by 0.8% agarose gel electrophoresis in TAE buffer and ethidium bromide staining. The reference strains of bacteria were used as a control in PCR reactions and were provided by the National Center for Agricultural Research, Peoria, Ill. P. l. larvae (NRRL B-3560, B-2605) and P. l. palvifaciens (NRRL B-3688, B-3685, B-3689, NRS-1687, P. alvei B383).
(§4) Positive controls contained the antibiotic Tylosin (Tylan® 50, Elanco Animal Health Inc., IN) and negative controls contained no antibiotics. […] The optical densities of cultures (OD 600) were recorded 24 h and 48 h post inoculation, depending on the growth rate of the microbial species. […] Minimum bactericidal concentration values (NBC) were determined for allicin by plating out 100 μl of bacterial cultures derived from the MIC assay. […]
In general terms: Broth dilution looks for growth in wells or tubes with falling amounts of substance.

In test [2] the test system is Paenibacillus larvae subsp. larvae. In words: MIC by broth microdilution, bee pathogens. The settings on record: range 1000 ppm to 0.25 ppm. The class given is cell-based.
Text: as §1, §2, §3, §4

A further test concerns Bordetella. In words: Zones of Inhibition against common chicken bacteria. The class given is cell-based.
The test system of another test is Ent. Hirae. In words: Agar inhibition test. The class given is cell-based, Enterococcus hirae. The settings on record: equivalent to 0.0225% w/v.
The subject of another test is P. larvae subsp. larvae. The experiment in a line: Investigation into bacteriostatic or bactericidal effects (Study 2). The class given is cell-based, Paenibacillus larvae subsp. larvae. Details: key to Growth in broth after exposure to test Item at concentration indicated: *: Growth present in one replicate only. The protocol: (§5) Where there was no growth in a replicate, at the end of one week the culture was plated out for single colonies on the appropriate agar. This was to determine whether the test item had bactericidal activity, where all the bacterial cells are killed, or bacteriostatic action, where the cells are unable to replicate in the presence of the substance, but will grow when it is removed. A further test, where 0.5 ml of the broth was transferred into 4.5 ml fresh broth (giving a 1:10 dilution) was also undertaken. There would still be some Allicin in the broth, but it should be present at a low enough concentration for growth not to be affected. Where growth occurred in the absence of Allicin, the broth was examined microscopically and plated out for single colonies to confirm the identity of the bacterium.

The next test has as its system M. plutonius. Described as above. It is filed as cell-based, Melissococcus plutonius. The conditions noted are these: conclusion from subculture after exposure. The procedure: as §5
The next test has as its system P. l. pulvifaciens. The experiment in a line: Minimum bactericidal concentration by plating out MIC cultures. The class given is cell-based, Paenibacillus larvae subsp. pulvifaciens. The settings on record: range of 1000 ppm to 25 ppm. The procedure: (§6) Positive controls contained the antibiotic Tylosin (Tylan® 50, Elanco Animal Health Inc., IN) and negative controls contained no antibiotics. Bacterial (P. l. larvae, P. l. pulviphaciens) or fungal (A. apis, A. aggregata) spores (100 μl of approximately 10^8-10^9 spores/ml) were added to a 2.5 ml of bacterial or fungal liquid medium containing serial dilutions of allicin. Cultures were incubated in a shaker at 35° C. and 215 rpm. The optical densities of cultures (OD 600) were recorded 24 h and 48 h post inoculation, depending on the growth rate of the microbial species. […] Minimum bactericidal concentration values (NBC) were determined for allicin by plating out 100 μl of bacterial cultures derived from the MIC assay. Plates were incubated 24 h and 48 h at 33° C. and 6% CO2 to observe microbial growth.

In the next test the test system is Salm. Enteriditis. In words: Zones of Inhibition against common chicken bacteria. It is filed as cell-based.
A further test relates to P. l. larvae. In words: Minimum bactericidal concentration by plating out MIC cultures. It is filed as cell-based, Paenibacillus larvae subsp. larvae. The settings on record: range of 1000 ppm to 25 ppm. The protocol:
as §6

The next test deals with Ascosphaera aggregata. The experiment in a line: MIC by broth microdilution, bee pathogens. It is filed as cell-based. The conditions noted are these: range 1000 ppm to 0.25 ppm.
Text: (§7) We tested allicia (Allisure™ Liquid) activity against several species of entomopathogenic bacteria (Paenibacillus larvae subsp. larvae, Paenibacillus larvae subsp. pulvifaciens) and fungi (Ascosphaera apis and Ascosphaera aggregata) using broth microdilution method to determine minimum inhibitory concentration (MIC) and the agar diffusion test (Kirby-Bauer) to determine zone of inhibition. Bacterial spores were isolated from the diseased honey bee larval samples. […]
(§8) Fungal spores (Ascosphaera apis) were collected from black honey bee mummies and (Ascosphaera aggregata) spores were collected from the diseased leaf cutter bees. […] The fungal colonies were analyzed by microscopic preparations of aerial mycelia and fungal spore cysts. […]
as §4

For another test, the system named is Ascosphaera apis. The experiment in a line: MIC by broth microdilution, bee pathogens. It is filed as cell-based. The conditions noted are these: range 1000 ppm to 0.25 ppm.
Text: as §7, §8, §4

≈ marks a conversion by molar mass, not a printed value. A value given as a limit tells only on which side of the number the result lay.

A word on the zone of inhibition: it is the extent of the growth-free halo in a diffusion test. In the case of `C=CCS[S+]([O-])CC=C` (centres unmarked) [allicin, Allicin], the MIC in [1] stood at 350 µg/mL (≈ 2160 µM); in test [2], 350 µg/mL (≈ 2160 µM); with Ascosphaera aggregata, 250 µg/mL (≈ 1540 µM); against Ascosphaera apis, 250 µg/mL (≈ 1540 µM). The zone of inhibition at 166 ppm in the test on Bordetella (166 ppm (1:6 dilution)) is 18 mm. This compound returned a zone of inhibition at 1000 ppm with Bordetella (1000 ppm) of 36 mm. In addition, in the test on Ent. Hirae, the “allicin concentration at which inhibition was demonstrated on agar plates” value was at most 0.225 g/L. Besides, the “Growth in broth after exposure to test Item at concentration indicated” value with P. larvae subsp. larvae (50 ppm, 10% inoculum transferred to fresh broth) is given as “*”. The “bacteriostatic or bactericidal effect” value with P. larvae subsp. larvae (conclusion from subculture after exposure) is “a bactericidal effect appeared to be observed”; in the test with M. plutonius it was “bacteriostatic rather than bactericidal effects”. For the same compound, the “bacteriostatic or bactericidal activity” value in the test with P. l. pulvifaciens and in the test with P. l. larvae was “only bacteriostatic (no bactericidal) activity” throughout. Also, the “zone of inhibition” value in the test with Salm. Enteriditis (166 ppm (1:6 dilution)) is 0 mm; in the test with Salm. Enteriditis (1000 ppm), 22 mm.

Source of the values: patent US20090275667A1, “USE OF ALLICIN AS PRESERVATIVE, AS DISINFECTANT, AS ANTIMICROBIAL OR AS BIOCIDAL AGENT” (Stone Island Holdings Ltd, priority 2003, published 2009).
